From patent publication US6342247B1, “Pharmaceutical compositions containing irbesartan” (Sanofi-Synthelabo, priority 1995, dated 2002)

Assay: Stability of tablets / hydrochlorothiazide degradation depending on excipients
Assay type: physicochemical
Description: Under certain conditions, hydrochlorothiazide can hydrolyze to form, as by-product products, a free amine degradant and formaldehyde (D.S. Desai et al., International Journal of Phaxmaceutics, 107(2), 141-47 (1994)). The selection of excipients can impact the stability of hydrochlorothiazide. […] The aforementioned preferred compositions of the present invention containing irbesartan and hydrochlorothiazide are thus further advantageous since the excipients employed therein minimize or eliminate hydrochlorothiazide degradation.

NS(=O)(=O)c1cc2c(cc1Cl)NCNS2(=O)=O [hydrochlorothiazide]
degradation of hydrochlorothiazide (poloxamer in the composition): increase the degradation
stability of hydrochlorothiazide (povidone as binder): formation of quantities of the free amine degradant
stability of hydrochlorothiazide (pregelatinized starch as binder, compared with povidone): greater stability
